Measurements published in patent publication US6537770B1, “Assay for detecting phospho-N-acetylmuramyl-pentapeptide translocase activity” (priority 1999, dated 2003).

Key:
[1] = target: T1, translocase enzyme (Escherichia coli membranes) (Escherichia coli, UniProt P0A6W3); assay: reversal of the translocase reaction (Lipid I back to the water soluble precursor) on addition of UMP; format: biochemical; conditions: 1 μM UMP added after 10 minutes reaction, stopped after about 3-4 minutes
T1 construct: The membranes are prepared from spheroplast pellets which are commercially available; Each pellet contains a certain amount of E. coli Hfr H; endogenous in cells; host or cells: E. coli Hfr H membranes, prepared from commercially available spheroplast pellets
T1 sequence (P0A6W3 whole entry): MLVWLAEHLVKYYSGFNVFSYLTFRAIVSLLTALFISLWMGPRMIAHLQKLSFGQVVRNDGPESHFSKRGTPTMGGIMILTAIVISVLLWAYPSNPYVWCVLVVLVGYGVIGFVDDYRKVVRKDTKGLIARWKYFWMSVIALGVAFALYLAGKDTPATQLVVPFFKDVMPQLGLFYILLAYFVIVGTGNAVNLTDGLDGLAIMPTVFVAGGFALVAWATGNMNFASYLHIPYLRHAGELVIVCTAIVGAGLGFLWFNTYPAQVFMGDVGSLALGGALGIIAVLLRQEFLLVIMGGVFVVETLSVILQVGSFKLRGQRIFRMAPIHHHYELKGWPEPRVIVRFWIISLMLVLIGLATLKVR
Description: The reaction catalysed by the enzyme translocase is known to be reversible. To show the reversible reaction, the enzyme reaction was continued for 10 mintues to form the radioactive product, undecaprenol-pyrophosphate-[2,3-^3H]propionate-N-acetylmuramylpentapeptide, Lipid I. This is seperated from its organic phase. Once the radioactive product is formed one set of reactions is stopped using the 2:1 pyridinium acetate and n-butanol mixture as described before. In a parallel set of reactions, 1 μM UMP is added. The reaction is then stopped after about 3-4 minutes. The lipid fraction can be extracted from both the sets of reactions. […] This indicates the reversal of Lipid I to the water soluble precursor.

[2] = target: T1, translocase enzyme (Escherichia coli membranes); assay: phospho-N-acetylmuramyl-pentapeptide translocase assay with 3H-propionated UDP-MPP, butanol extraction and scintillation counting; format: biochemical; conditions: Tunicamycin at 0.3 μg/ml; FIG. 2
Method: Eppendorf tubes were individually filled with a total of 40 μl of the reaction mixture each, initially. The reaction mixture consisted of an aqueous buffer solution of 100 mM Tris-HCl (Tris[hydroxymethyl]aminomethane hydrochloride), 25 mM magnesium chloride, 50 Mm of potassium chloride, 0.1% w/v Triton X-100, 8 μM of propionated non-radioactive UDP-MPP, 2 μM of ^3H-propionated UDP-MPP at room temperature, 10 μl of the enzyme at a concentration of 5 μg per ml and 17.5 μl of water. To this a solution of a test compound (e.g. Tunicamycin) of varying concentration is added. […] The reaction commences with the addition of the enzyme.
The Escherichia coli membranes, which serve as a source of the enzyme, were prepared in the following manner.
The membranes are prepared from spheroplast pellets which are commercially available. Each pellet contains a certain amount of E. coli Hfr H. The pellet is thawed overnight at 4° C. The pellet is weighed and the figure is multiplied by 7.5. […] The pellet is again resuspended in the same volume of 50 mM Tris-HCl buffer solution of pH 7.5 as calculated in the previous paragraph, containing, 20 μg/ml DNAse, 20 μg/ml RNAse, 1 mM magnesium chloride and 1 mM β-mercapto ethanol. […]
The product is extracted with saturated n-butanol and washed with 50 μl of water. It is then counted, 25-50 μl at a time on a scintillation counter.

| Compound | radioactive count in the organic phase (Lipid I) [1] | inhibition of translocase (rate, cpm versus time compared with control) [2] |
| --- | --- | --- |
| O=c1ccn([C@@H]2O[C@H](COP(=O)(O)O)[C@@H](O)[C@H]2O)c(=O)[nH]1 [UMP] | reduced to basal levels |  |
| Tunicamycin |  | antagonist of the translocase enzyme |
